# Laboratory results from patent publication US10189796B2, “[4-(1,3,3-trimethyl-2-oxo-3,4-dihydro-1H-quinoxalin-7-yl)phenoxy]ethyloxy compound or salt thereof” (SANTEN PHARMACEUTICAL CO., LTD., priority 2015, dated 2019).
# Experiments:
# [1] = system: ovalbumin actively sensitized allergic conjunctivitis model of rabbits; assay: Allergic conjunctivitis model evaluation test; assay type: in vivo, rabbit; settings: 1% suspension, eye drop 50 μL four times a day for 4 days plus once; 0.5 hour after challenge
# Description: In order to evaluate an anti-allergic action of the present compounds on allergic conjunctivitis, an inhibitory effect on hyperemia in an ovalbumin actively sensitized allergic conjunctivitis model of rabbits was investigated. Incidentally, this effect was evaluated by calculating an inhibitory ratio from the score of the base agent administered group (control group) and the score of the test compound administered group.
# A base agent containing a general additive(s) was added to the test compound to prepare test compound suspensions with 1% (WN) and 3% (W/V).
# By using male JW rabbits, ovalbumin (200 μg/mL/physiological saline solution) adsorbed on aluminum hydroxide gel was injected 200 μL per eye into bulbar conjunctiva of both eyes of rabbits, respectively, to perform active sensitization.
# After 14 days from sensitization or later, the test compound suspension was eye-dropped four times a day for 4 days, and then, at the next day, it was eye-dropped (instillation dose: 50 μL/time) once to both eyes. Incidentally, the base agent was similarly eye-dropped to the base agent administered group (control group).
# One hour after the final eye dropping of the test compound suspension, a physiological saline solution containing 0.02% (W/V) of ovalbumin was administered from rabbit ear vein at a dose of 1.5 mL per 1 kg of rabbit to induce allergic conjunctivitis.
# After 0.5 hour of the challenge, the degree of hyperemia symptoms of both ocular conjunctiva of rabbits was evaluated according to the following criteria, and the average value of the total of these scores was calculated. […]
# Recombinant human GR = Recombinant human GR (Homo sapiens (Human), UniProt P04150); assay: GR competitive binding assay by fluorescence polarization; settings: 20 μM test compound solution, 10 μL/well; 2 hours; DEX positive control; read-out: GR binding rate (%)
# Description: In order to evaluate a binding activity of the present compound to GR, a GR receptor competitor assay was carried out by a fluorescence polarization method. In the assay, a GR competitive binding assay kit (manufactured by Invitrogen, cat No. P2816) was used for the assay, and a procedure was carried out according to the protocol attached to the kit. Hereinafter, the specific method will be described.
# GR screening buffer: A buffer containing 10 mM of potassium phosphate (pH 7.4), 20 mM of sodium molybdate (Na2MoO4), 0.1 mM of ethylene diamine tetraacetic acid (EDTA), 5 mM of dithiothreitol (DTT), 0.1 mM of stabilizing peptide and 2% of dimethylsulfoxide was prepared.
# 4×GS1 solution: Fluormone™ GS1, which is a fluorescent glucocorticoid ligand, was diluted with GR screening buffer, whereby a 4 nM solution was prepared.
# 4×GR solution: Recombinant human GR was diluted with GR screening buffer, whereby a 16 nM solution was prepared.
# After a test compound was dissolved in dimethylsulfoxide, the resulting solution was diluted with GR screening buffer, whereby a 20 μM test compound solution was prepared. In addition, DEX was similarly dissolved, whereby a DEX solution with a […] concentration was prepared, and the solution was diluted with GR screening buffer, whereby a 2 mM DEX solution was prepared. DEX was used as positive control.
# • 1) The test compound solution was added in an amount of 10 μL into each well of a 384-well plate. • 2) 4×GS1 solution and 4×GR solution were added in an amount of 5 μL into each well, respectively. • 3) GR screening buffer was added in an amount of 10 μL/well into each well in place of the test compound solution, which was made a negative control. • 4) A 2 mM of DEX was added in an amount of 10 μL/well into each well in place of the test compound solution, which was made a positive control. • 5) The plate was incubated in a dark place at room temperature for 2 hours, and fluorescence polarization of each well was measured. (Calculation Equation of GR Binding Ratio)
# A GR binding ratio (%) was calculated from the following equation. GR binding ratio (%)=100×{1−(fluorescence polarization of test compound solution−average value of fluorescence polarization of positive control solution)/(average value of fluorescence polarization of negative control solution−average value of fluorescence polarization of positive control solution)}
# [2] = system: TNFα production in rat whole blood; assay: TNFα production inhibitory action evaluation test (LPS stimulation ex vivo, ELISA); assay type: cell-based; settings: 20 hours, 200 μM test compound solution 10 μL/well, DEX treated group = 100, read-out: TNFα production inhibitory ratio (% DEX)
# Description: In order to evaluate an action of the present compound as a GR agonist, a TNFα production inhibitory action in rat whole blood after LPS stimulation ex vivo was investigated. For the measurement of the TNFα production amount, the ELISA method (manufactured by R&D Systems, Cat No. RTA00) was used, and a procedure was carried out according to the protocol attached thereto. Hereinafter, the specific method will be described.
# LPS solution: LPS was dissolved in PBS(−) and diluted with RPMI 1640 to prepare an LPS solution with a concentration of 2 μg/mL.
# After the test compound was dissolved in dimethylsulfoxide, the solution was diluted with PBS(−) to prepare 200 μM of a test compound solution. In addition, DEX was similarly dissolved to prepare 200 μM of a DEX solution, and a TNFα production inhibitory ratio of DEX was measured, and used for calculation of Efficacy (% DEX).
# • 1) Blood was collected from 3 to 5 rats using an injection syringe treated with heparin from the abdominal aorta under isoflurane anesthesia. The rats confirmed death after lething the whole blood. • 2) The blood of 3 to 5 rats pooled in a 96-well round bottom culture plate was seeded at each 180 μL/well. • 3) It was cultured (37° C., 5% CO2, 95% air) for about 1 hour. • 4) The test compound solution was added each 10 μL/well, and cultured for 1 hour. • 5) LPS solution was added each 10 μL/well. • 6) The sample in which 2% dimethylsulfoxide-containing PBS(−) was added with each 10 μL/well in place of each test compound solution, and RPMI 1640 was added with each 10 μL/well in place of the LPS solution was made a negative control. • 7) The sample in which 2% dimethylsulfoxide-containing PBS(−) was added with each 10 μL/well in place of each test compound solution was made a positive control. • 8) After completion of 20 hours cultivation, the supernatant was recovered and the amount of TNFα released in the supernatant was measured by using an ELISA Kit. • 9) The TNFα production inhibitory ratio was calculated according to the following calculation formula. (Calculation of TNFα Production Inhibitory Ratio)
# TNFα production inhibitory ratio (%) was calculated according to the following formula. TNFα production inhibitory ratio (%)=100×{1−(TNFα production amount of each test compound solution−average value of TNFα production amount of negative control group)/(average value of TNFα production amount of positive control group−average value of TNFα production amount of negative control group)}(%)
# Further, a TNFα production inhibitory ratio (Efficacy (% DEX)) when the DEX treated group was made 100 was calculated. Efficacy (% DEX)=100×{(average value of TNFα production inhibitory ratio of each test compound solution)/(average value of TNFα production inhibitory ratio of DEX treated group)}(%)
# Chain of Recombinant human GR (P04150 whole entry): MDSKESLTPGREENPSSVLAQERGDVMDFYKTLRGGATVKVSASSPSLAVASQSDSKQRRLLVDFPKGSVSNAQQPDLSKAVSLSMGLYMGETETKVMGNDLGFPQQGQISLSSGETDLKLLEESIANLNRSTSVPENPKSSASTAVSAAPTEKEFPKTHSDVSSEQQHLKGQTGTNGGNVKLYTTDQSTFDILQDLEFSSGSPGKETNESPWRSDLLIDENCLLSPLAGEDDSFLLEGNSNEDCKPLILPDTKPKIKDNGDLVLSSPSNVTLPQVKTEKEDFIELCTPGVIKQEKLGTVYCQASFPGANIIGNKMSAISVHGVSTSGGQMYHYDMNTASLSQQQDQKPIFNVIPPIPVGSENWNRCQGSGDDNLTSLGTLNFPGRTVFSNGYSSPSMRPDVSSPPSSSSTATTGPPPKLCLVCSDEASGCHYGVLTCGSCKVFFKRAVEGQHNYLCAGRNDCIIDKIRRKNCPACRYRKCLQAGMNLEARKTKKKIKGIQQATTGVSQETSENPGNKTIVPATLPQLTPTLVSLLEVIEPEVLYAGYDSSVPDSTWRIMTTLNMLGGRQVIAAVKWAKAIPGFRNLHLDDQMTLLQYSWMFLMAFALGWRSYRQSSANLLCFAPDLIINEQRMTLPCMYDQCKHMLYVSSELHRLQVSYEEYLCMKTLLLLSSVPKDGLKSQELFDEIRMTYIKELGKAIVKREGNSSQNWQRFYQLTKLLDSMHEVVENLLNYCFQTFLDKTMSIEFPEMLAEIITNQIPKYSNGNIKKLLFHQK
smiles,measurement,setting,value
"COc1cc(OC[C@H](C)OP(=O)(O)O)ccc1-c1ccc2c(c1COc1cc(F)ccc1C)N(C)C(=O)C(C)(C)N2 [Compound 14-1, (S)-8-(5-fluoro-2-methylphenoxymethyl)-7-[4-(2-phosphonohydroxypropyl)oxy-2-methoxyphenyl]-1,3,3-trimethyl-3,4-dihydro-1H-quinoxalin-2-one]",Eye congestion inhibitory ratio (%),[1],22%
same,inhibition at 10 µM,Recombinant human GR,> 99%
same,Emax,[2],86%
